According to patent US4800191A, “LHRH antagonists” (priority 1987, dated 1989):
“And” between values parts separate entries of the source, which are not always exact repeats. Identical values can stand only once. *1 amine or outer side, *2 acyl side, *3 side chain or, on linkers, in order; H or OH if unused. Where a SMILES comes first, the peptide text is derived from it. Side-chain parts run from the residue outwards. [ ]: non-standard residue; d: D form. dPhe(4-Cl) = N[C@H](Cc1ccc(Cl)cc1)C(=O)O; d2Nal = N[C@H](Cc1ccc2ccccc2c1)C(=O)O; d(hCit) = NC(=O)NCCCC[C@@H](N)C(=O)O; dCit = NC(=O)NCCC[C@@H](N)C(=O)O; dOrn = NCCC[C@@H](N)C(=O)O; CO = O=C([*:1])[*:2]

Test system: rats
Experiment: edematogenic test of Schmidt, et al.
Type: in vivo, rat
Details: 1.5 mg/kg s.c. once a day on two consecutive days; for 1st Day FR (full responders: facial edema with edematous extremities), rats / 1st Day PR (partial responders: edema of the nasal and paranasal area), rats / 1st Day NR (no apparent reaction), rats: day 1; for 1st Day NR (no apparent reaction), rats: observed five hours each day; for 2nd Day FR (full responders: facial edema with edematous extremities), rats / 2nd Day NR (no apparent reaction), rats / 2nd Day PR (partial responders: edema of the nasal and paranasal area), rats: day 2
Protocol: In the edematogenic test of Schmidt, et al. (Contraception, 29, 283-289, 1984), however, a marked difference can be found between the control peptides and the peptides of the present invention. The control peptides produce edema of the face and extremities when administered subcutaneously in rats at doses of 0.75 or 1.25 mg/kg. No such reaction can be observed with the peptides of the present invention when given at a subcutaneous dose of 1.5 mg/kg.
In the tests as run the rats were assigned to three groups of five rats per group per compound tested. Comparison with made with a known prior art compound designated ORG 30276 namely (N-Ac-D-p-Cl-Phe^1,2, D-Trp^3, D-Arg^6, D-Ala^10)-LHRH. The groups were injected subcuntaneously once a day on two consecutive days with the LHRH antagonists at a dose level of 1.5 mg/kg. One control group was injected with diluent only. The rats were observed during five hours each day. Reactions of the rats were classified as follows: NR no apparent reaction, PR partial responders: edema of the nasal and paranasal area, FR full responders: facial edema with edematous extremities.

1st Day FR (full responders: facial edema with edematous extremities), rats	1st Day PR (partial responders: edema of the nasal and paranasal area), rats	1st Day NR (no apparent reaction), rats	2nd Day FR (full responders: facial edema with edematous extremities), rats	2nd Day NR (no apparent reaction), rats	2nd Day PR (partial responders: edema of the nasal and paranasal area), rats	Molecule
0	0	8				CC(=O)N[C@H](Cc1ccc2ccccc2c1)C(=O)N[C@H](Cc1ccc(Cl)cc1)C(=O)N[C@H](Cc1c[nH]c2ccccc12)C(=O)N[C@@H](CO)C(=O)N[C@@H](Cc1ccc(O)cc1)C(=O)N[C@H](CCCNC(N)=O)C(=O)N[C@@H](CC(C)C)C(=O)N[C@@H](CCCNC(=N)N)C(=O)N1CCC[C@H]1C(=O)N[C@H](C)C(N)=O [EX III, Ac-D-Nal(2)-D-Phe(4-Cl)-D-Trp-Ser-Tyr-D-Cit-Leu-Arg-Pro-D-Ala-NH^2] (Ac-[d2Nal][dPhe(4-Cl)][dW]SY[dCit]LRP[dA]-NH2)
0	0	9	0	9	0	CCNC(=O)NCCC[C@@H](NC(=O)[C@H](Cc1ccc(O)cc1)NC(=O)[C@H](CO)NC(=O)[C@@H](Cc1c[nH]c2ccccc12)NC(=O)[C@@H](Cc1ccc(Cl)cc1)NC(=O)[C@@H](Cc1ccc2ccccc2c1)NC(C)=O)C(=O)N[C@@H](CC(C)C)C(=O)N[C@@H](CCCNC(=N)N)C(=O)N1CCC[C@H]1C(=O)N[C@H](C)C(N)=O [EX IV, Ac-D-Nal(2)-D-Phe(4-Cl)-D-Trp-Ser-Tyr-D-Cit(Et)-Leu-Arg-Pro-D-Ala-NH2] (Ac-[d2Nal][dPhe(4-Cl)][dW]SY[dOrn]([CO-NHEt])LRP[dA]-NH2)
0	0	9	0	8	1	CC(=O)N[C@H](Cc1ccc(Cl)cc1)C(=O)N[C@H](Cc1ccc(Cl)cc1)C(=O)N[C@H](Cc1c[nH]c2ccccc12)C(=O)N[C@@H](CO)C(=O)N[C@@H](Cc1ccc(O)cc1)C(=O)N[C@H](CCCCNC(N)=O)C(=O)N[C@@H](CC(C)C)C(=O)N[C@@H](CCCNC(=N)N)C(=O)N1CCC[C@H]1C(=O)N[C@H](C)C(N)=O [EX V, Ac-D-Phe(4-Cl)-D-Phe(4-Cl)-D-Trp-Ser-Tyr-D-Hci-Leu-Arg-Pro-D-Ala-NH2] (Ac-[dPhe(4-Cl)][dPhe(4-Cl)][dW]SY[d(hCit)]LRP[dA]-NH2)
0	5 and 3		6 and 3		2 and 1	CC(=O)N[C@H](Cc1ccc(Cl)cc1)C(=O)N[C@H](Cc1ccc(Cl)cc1)C(=O)N[C@H](Cc1c[nH]c2ccccc12)C(=O)N[C@@H](CO)C(=O)N[C@@H](Cc1ccc(O)cc1)C(=O)N[C@H](CCCNC(=N)N)C(=O)N[C@@H](CC(C)C)C(=O)N[C@@H](CCCNC(=N)N)C(=O)N1CCC[C@H]1C(=O)N[C@H](C)C(N)=O [ORG 30276, (N-Ac-D-p-Cl-Phe^1,2, D-Trp^3, D-Arg^6, D-Ala^10)-LHRH, reference compound] (Ac-[dPhe(4-Cl)][dPhe(4-Cl)][dW]SY[dR]LRP[dA]-NH2)
0	0	8	0	8	0	Ac-[d2Nal][dPhe(4-Cl)][dW]SY[d(hCit)]RP[dA]-NH2 [EX I]
